Several values for one entry are separate records, joined by “and”; a condition that tells them apart may be missing. Equal values may be shown once. Toxic doses and inconclusive results are not listed.
Tested on: CD2F1 mice, L1210 leukemia ip, survival T/C
Assay: NCI In Vivo Anticancer Drug Screen. Data for tumor model L1210 Leukemia (intraperitoneal) in CD2F1 (CDF1) mice
Conditions: higher = longer survival
How it was run: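 Compound-dosed mice with transplantable tumor versus matched vehicle controls; endpoint ratio T/C reported.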

[1] = endpoint: mean survival time, dose: 12.5 mg/kg/injection, schedule: Q01DX009 (ip), vehicle: saline with Tween-80
[2] = endpoint: mean survival time, dose: 25.0 mg/kg/injection, schedule: Q01DX009 (ip), vehicle: saline with Tween-80
[3] = endpoint: mean survival time, dose: 50.0 mg/kg/injection, schedule: Q01DX009 (ip), vehicle: saline with Tween-80
[4] = endpoint: mean survival time, dose: 100.0 mg/kg/injection, schedule: Q04DX003 (ip), vehicle: saline with Tween-80
[5] = endpoint: mean survival time, dose: 200.0 mg/kg/injection, schedule: Q01DX009 (ip), vehicle: saline with Tween-80
[6] = endpoint: mean survival time, dose: 200.0 mg/kg/injection, schedule: Q04DX003 (ip), vehicle: saline with Tween-80
[7] = endpoint: mean survival time, dose: 12.5 mg/kg/injection, schedule: Q01DX009 (ip), vehicle: saline
[8] = endpoint: mean survival time, dose: 50.0 mg/kg/injection, schedule: Q01DX009 (ip), vehicle: saline

## N=C(N)SCc1ccccc1
endpoint: mean survival time, dose: 6.25 mg/kg/injection, schedule: Q04DX003 (ip), vehicle: saline with Tween-80
  T/C: 114 % of control
[1]
  T/C: 94 % of control
endpoint: mean survival time, dose: 12.5 mg/kg/injection, schedule: Q04DX003 (ip), vehicle: saline with Tween-80
  T/C: 100 % of control
endpoint: mean survival time, dose: 25.0 mg/kg/injection, schedule: Q01DX001 (ip), vehicle: saline
  T/C: 93 % of control
[2]
  T/C: 96 % of control
endpoint: mean survival time, dose: 25.0 mg/kg/injection, schedule: Q04DX003 (ip), vehicle: saline with Tween-80
  T/C: 112 % of control
endpoint: mean survival time, dose: 50.0 mg/kg/injection, schedule: Q01DX001 (ip), vehicle: saline
  T/C: 100 % of control
[3]
  T/C: 93 % of control and 97 % of control
endpoint: mean survival time, dose: 50.0 mg/kg/injection, schedule: Q04DX003 (ip), vehicle: saline with Tween-80
  T/C: 94 % of control and 97 % of control
endpoint: mean survival time, dose: 100.0 mg/kg/injection, schedule: Q01DX001 (ip), vehicle: saline
  T/C: 96 % of control
[4]
  T/C: 100 % of control
[5]
  T/C: 86 % of control
[6]
  T/C: 95 % of control

## COc1ccc2[nH]c(=O)c3c(c2c1)CCC(OC(=O)c1ccccc1)C3 (stereo unspecified)
[7]
  T/C: 104 % of control
endpoint: mean survival time, dose: 18.8 mg/kg/injection, schedule: Q04DX003 (ip), vehicle: saline
  T/C: 104 % of control
endpoint: mean survival time, dose: 25.0 mg/kg/injection, schedule: Q01DX009 (ip), vehicle: saline
  T/C: 97 % of control
endpoint: mean survival time, dose: 37.5 mg/kg/injection, schedule: Q04DX003 (ip), vehicle: saline
  T/C: 101 % of control
[8]
  T/C: 98 % of control
endpoint: mean survival time, dose: 75.0 mg/kg/injection, schedule: Q04DX003 (ip), vehicle: saline
  T/C: 97 % of control

## NC(CCl)=NCC12CC3CC(CC(C3)C1)C2
endpoint: median survival time, dose: 3.0 mg/kg/injection, schedule: Q01DX009 (ip), vehicle: Klucel (hydroxypropylcellulose) (HPC)
  T/C: 104 % of control
endpoint: median survival time, dose: 6.0 mg/kg/injection, schedule: Q01DX009 (ip), vehicle: Klucel (hydroxypropylcellulose) (HPC)
  T/C: 107 % of control
endpoint: median survival time, dose: 12.0 mg/kg/injection, schedule: Q01DX009 (ip), vehicle: Klucel (hydroxypropylcellulose) (HPC)
  T/C: 108 % of control
endpoint: median survival time, dose: 24.0 mg/kg/injection, schedule: Q01DX009 (ip), vehicle: Klucel (hydroxypropylcellulose) (HPC)
  T/C: 110 % of control

## CCOC(OCC)c1nc(N)nc(N)c1-c1ccc(Cl)c(Cl)c1
endpoint: mean survival time, dose: 134.0 mg/kg/injection, schedule: Q01DX009 (ip), vehicle: other
  T/C: 123 % of control
endpoint: mean survival time, dose: 200.0 mg/kg/injection, schedule: Q01DX009 (ip), vehicle: other
  T/C: 111 % of control
endpoint: mean survival time, dose: 300.0 mg/kg/injection, schedule: Q01DX009 (ip), vehicle: other
  T/C: 88 % of control

## O=C(CC(=O)CC(O)(C(F)(F)F)C(F)(F)F)CC(O)(C(F)(F)F)C(F)(F)F
endpoint: mean survival time, dose: 5.0 mg/kg/injection, schedule: Q04DX003 (ip), vehicle: saline
  T/C: 100 % of control
endpoint: mean survival time, dose: 10.0 mg/kg/injection, schedule: Q04DX003 (ip), vehicle: saline
  T/C: 96 % of control

## O=C(Nc1ncccn1)Nc1cc([N+](=O)[O-])ccc1F
endpoint: mean survival time, dose: 50.0 mg/kg/injection, schedule: Q01DX009 (ip), vehicle: Klucel (hydroxypropylcellulose) (HPC)
  T/C: 93 % of control
endpoint: mean survival time, dose: 100.0 mg/kg/injection, schedule: Q01DX009 (ip), vehicle: Klucel (hydroxypropylcellulose) (HPC)
  T/C: 96 % of control
endpoint: mean survival time, dose: 200.0 mg/kg/injection, schedule: Q01DX009 (ip), vehicle: Klucel (hydroxypropylcellulose) (HPC)
  T/C: 98 % of control

## CCOC(=O)COc1c(C(C)(C)C)cc([N+](=O)[O-])c(C)c1[N+](=O)[O-]
endpoint: mean survival time, dose: 100.0 mg/kg/injection, schedule: Q01DX001 (ip), vehicle: saline with Tween-80
  T/C: 105 % of control
endpoint: mean survival time, dose: 200.0 mg/kg/injection, schedule: Q01DX001 (ip), vehicle: saline with Tween-80
  T/C: 111 % of control
endpoint: mean survival time, dose: 400.0 mg/kg/injection, schedule: Q01DX001 (ip), vehicle: saline with Tween-80
  T/C: 96 % of control

## COC1OCC(O)C(NC(=O)N(C)N=O)C1O (stereo unspecified)
[8]
  T/C: 160 % of control
endpoint: mean survival time, dose: 75.0 mg/kg/injection, schedule: Q01DX009 (ip), vehicle: saline
  T/C: 186 % of control

## COc1ccc(C(O)C#N)cc1O (stereo unspecified)
endpoint: mean survival time, dose: 3.13 mg/kg/injection, schedule: Q01DX009 (ip), vehicle: saline
  T/C: 101 % of control
endpoint: mean survival time, dose: 6.25 mg/kg/injection, schedule: Q01DX009 (ip), vehicle: saline
  T/C: 103 % of control
endpoint: mean survival time, dose: 6.25 mg/kg/injection, schedule: Q04DX003 (ip), vehicle: saline
  T/C: 101 % of control
[7]
  T/C: 101 % of control
endpoint: mean survival time, dose: 12.5 mg/kg/injection, schedule: Q04DX003 (ip), vehicle: saline
  T/C: 106 % of control

## O=c1[nH]c2ccccc2c(=O)c2ccccc12
endpoint: mean survival time, dose: 100.0 mg/kg/injection, schedule: Q01DX009 (ip), vehicle: saline with Tween-80
  T/C: 90 % of control
[4]
  T/C: 101 % of control
[5]
  T/C: 94 % of control
[6]
  T/C: 97 % of control
endpoint: mean survival time, dose: 400.0 mg/kg/injection, schedule: Q01DX009 (ip), vehicle: saline with Tween-80
  T/C: 107 % of control
endpoint: mean survival time, dose: 400.0 mg/kg/injection, schedule: Q04DX003 (ip), vehicle: saline with Tween-80
  T/C: 101 % of control

## CSc1ccc(OC(=O)Nc2ccc(C)cc2C)cc1C
[1]
  T/C: 95 % of control
[2]
  T/C: 91 % of control
[3]
  T/C: 87 % of control and 89 % of control
[5]
  T/C: 93 % of control
